In brackets after ≈: the same amount, converted by molar mass. Read-outs that look alike come from different tables or passages of the source. Marks after values point to notes of the source that are not given here.
Tests used:
human adenovirus 5 [1] = system: human adenovirus 5
in vitro = conditions: African green monkey
human adenovirus 5 [2] = assay: organism not typed; conditions: Vero
[3] = system: influenza virus A/California/04/2009; assay type: in vivo, mice
[4] = system: influenza virus A/Puerto Rico/8/34 (H1N1)
MDCK = assay: 50% cytotoxic concentration, cell line used for influenza virus; conditions: PR8 (influenza virus) section
[5] = system: influenza virus A/Puerto Rico/8/34 (H1N1); assay type: in vivo, Balb/c mice; conditions: Group 2: Tamiflu 20 mg/kg once a day intragastrically
mu receptors = mu receptors (Homo sapiens, UniProt P35372); conditions: metabolite of Dalargin; cited from earlier work
Chain of mu receptors (P35372 whole entry): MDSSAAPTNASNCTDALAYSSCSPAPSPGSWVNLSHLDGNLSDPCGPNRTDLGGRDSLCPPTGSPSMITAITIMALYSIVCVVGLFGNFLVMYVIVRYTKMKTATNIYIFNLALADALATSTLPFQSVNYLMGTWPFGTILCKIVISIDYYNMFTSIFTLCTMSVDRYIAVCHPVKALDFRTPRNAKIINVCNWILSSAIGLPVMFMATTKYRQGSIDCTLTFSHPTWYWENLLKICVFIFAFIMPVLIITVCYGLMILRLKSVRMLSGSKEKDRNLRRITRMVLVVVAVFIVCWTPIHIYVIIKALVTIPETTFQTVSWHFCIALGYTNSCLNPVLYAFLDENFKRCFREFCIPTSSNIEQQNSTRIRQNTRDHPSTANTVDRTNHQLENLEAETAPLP

[6] = Group 3: Arbidol 130 mg/kg intragastrically once a day, therapeutic
[7] = Group 3: Arbidol 130 mg/kg intragastrically once a day, therapeutic, 30 animals
[8] = Group 2: Ingavirin 15 mg/kg intragastrically once a day, therapeutic
[9] = Group 2: Ingavirin 15 mg/kg intragastrically once a day, therapeutic, 30 animals

For `Nc1nc2c(ncn2COCCO)c(=O)[nH]1` [Aciclovir], which SI (human adenovirus 5 [1]; CC50/IC50, Ad5 (adenovirus)) is on record?
The SI was 1.

What about the “Antiviral properties (in words)” value (human adenovirus 5 [1]; adenovirus, Vero) of the same molecule?
Its value is “did not exhibit antiviral properties”.

What about the CC50 (in vitro) of the same molecule?
The CC50 was greater than 30 µg/mL.

And the IC50 (human adenovirus 5 [2])?
The IC50 was greater than 30 µg/mL.

What does the source list for `CCOC(=O)c1c(CSc2ccccc2)n(C)c2cc(Br)c(O)c(CN(C)C)c12` [Arbidol]?
Mortality, % [3, 6]: 70.00%; Protective index, % [3, 6]: 27.59%; Mortality by day 5 [3, 7]: 2; Mortality by day 6 [3, 7]: 2; Mortality by day 7 [3, 7]: 7; Mortality by day 8 [3, 7]: 5; Mortality by day 9 [3, 7]: 3; Mortality by day 10 [3, 7]: 2; Residue [3, 7]: 9

For `O=C(O)CCCC(=O)NCCc1c[nH]cn1` [Ingavirin], which “Mortality, %” value [3, 8] is on record?
The value was 53.33%.

What about the “Protective index, %” value [3, 8] of the same molecule?
The value was 44.83%.

And the “Mortality by day 6” value [3, 9]?
Its value is 4.

And the “Mortality by day 7” value [3, 9]?
Its value is 6.

What about the “Mortality by day 8” value [3, 9] of the same molecule?
The value was 3.

And the “Mortality by day 9” value [3, 9]?
The value was 2.

And the “Mortality by day 10” value [3, 9]?
The value was 1.

What about the Residue [3, 9] of the same molecule?
The Residue was 14.

What about the “Mortality by day 5” value ([3]; mouse, in vivo) of the same molecule?
The value was 3.

What about the “Mortality by day 6” value ([3]; mouse, in vivo) of the same molecule?
Its value is 4.

What about the “Mortality by day 7” value ([3]; mouse, in vivo) of the same molecule?
The value was 4.

What about the “Mortality by day 8” value ([3]; mouse, in vivo) of the same molecule?
The value was 7.

And the “Mortality by day 9” value ([3]; mouse, in vivo)?
Its value is 4.

And the “Mortality by day 10” value ([3]; mouse, in vivo)?
The value was 2.

What about the “Mortality, %” value ([3]; mouse, in vivo) of the same molecule?
The value was 80.00%.

And the “Protective index, %” value ([3]; mouse, in vivo)?
Its value is 17.24%.

What about the Residue ([3]; mouse, in vivo) of the same molecule?
Its Residue is 6.

With `CC(N)C12CC3CC(CC(C3)C1)C2` (stereo not shown) [Remantadin] as the molecule, how does the SI ([4]; CC50/IC50, PR8 (influenza virus)) read?
Its SI is 5.

And the IC50 ([4]; PR8 (influenza virus), MDCK)?
The IC50 was 11 µg/mL (≈ 61.3 µM).

And the “Antiviral properties (in words)” value ([4]; influenza virus, MDCK)?
Its value is “did not exhibit antiviral properties”.

What about the CC50 (MDCK) of the same molecule?
Its CC50 is 64 µg/mL (≈ 357 µM).

Which “Mortality, %” value [5] does the source give for `CCOC(=O)C1=C[C@@H](OC(CC)CC)[C@H](NC(C)=O)[C@@H](N)C1` [Tamiflu, oseltamivir] here?
Its value is 10.00%.

What about the “Protective index, %” value [5] of the same molecule?
The value was 88.46%.

And the “Mortality by day 9” value ([5]; 30 animals)?
Its value is 2.

And the “Mortality by day 10” value ([5]; 30 animals)?
The value was 1.

What about the Residue ([5]; 30 animals) of the same molecule?
Its Residue is 27*.

Which “Affinity to mu receptors” value (mu receptors) does the source give for Tyr-D-Ala-Gly-Phe here?
The value was “exhibits affinity to mu receptors”.

— patent US20210346459A1, “Application of Dalargin for the prevention of VRIs and prevention of the development of complications during VRIs” (priority 2020, published 2021)
